Here are results for 4 compounds from US11464759B2, “5-HT6 receptor antagonists for use in the treatment of alzheimer's disease in patient subpopulation carrying APOE4 alleles” (H. Lundbeck A/S, priority 2017, dated 2022).

“Also recorded” adds a separate entry of the source.

For test [1], the system named is APOE4/4 homozygote patients and APOE4 heterozygote patients with mild-moderate Alzheimer's disease. The test can be described thus: Expected treatment response to other 5-HT6 receptor antagonists in APOE4 patients. Type of test: in vivo, human. The settings on record: APOE4/4 homozygote and APOE4 heterozygote patients with mild-moderate AD; surmised from idalopirdine.

Test [2] concerns patients with mild-moderate Alzheimer's disease (MMSE 12-22). Nature of the test: Phase III program, idalopirdine as adjunctive treatment to acetylcholinesterase inhibitor, cognitive performance. It counts as in vivo, human.
In a further test the target is h5-HT1B (Homo sapiens, UniProt P28222). The settings on record: cited from earlier work.
Chain of h5-HT1B (P28222 whole entry): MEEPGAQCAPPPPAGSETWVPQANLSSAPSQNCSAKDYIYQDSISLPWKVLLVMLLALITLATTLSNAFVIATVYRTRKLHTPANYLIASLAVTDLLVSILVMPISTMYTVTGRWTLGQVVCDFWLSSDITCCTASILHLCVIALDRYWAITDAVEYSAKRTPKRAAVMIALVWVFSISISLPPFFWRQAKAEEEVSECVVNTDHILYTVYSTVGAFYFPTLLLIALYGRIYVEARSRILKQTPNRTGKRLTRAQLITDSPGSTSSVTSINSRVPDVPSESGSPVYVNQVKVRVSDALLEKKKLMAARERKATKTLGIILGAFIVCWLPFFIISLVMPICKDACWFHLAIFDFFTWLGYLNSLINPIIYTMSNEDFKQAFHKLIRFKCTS
A further test has as its target h5-HT1E (Homo sapiens, UniProt P28566). The settings on record: cited from earlier work.
In a further test the target is h5-HT2B (Homo sapiens, UniProt P41595). As to conditions: cited from earlier work.
Chain of h5-HT2B (P41595 whole entry): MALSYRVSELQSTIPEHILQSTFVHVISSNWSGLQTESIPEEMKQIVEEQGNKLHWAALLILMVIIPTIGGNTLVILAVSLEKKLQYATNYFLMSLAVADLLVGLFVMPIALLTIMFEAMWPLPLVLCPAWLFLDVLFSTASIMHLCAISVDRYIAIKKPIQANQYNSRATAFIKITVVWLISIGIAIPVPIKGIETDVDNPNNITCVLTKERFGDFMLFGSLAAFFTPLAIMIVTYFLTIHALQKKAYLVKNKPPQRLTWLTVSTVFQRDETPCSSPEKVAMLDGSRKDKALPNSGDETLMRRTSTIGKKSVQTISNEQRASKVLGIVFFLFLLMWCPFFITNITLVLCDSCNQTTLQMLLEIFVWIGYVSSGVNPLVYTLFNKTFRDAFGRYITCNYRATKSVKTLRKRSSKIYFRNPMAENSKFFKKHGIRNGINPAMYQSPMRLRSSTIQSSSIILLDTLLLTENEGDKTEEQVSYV
The target of another test is h5-HT7 (Homo sapiens, UniProt P34969). The settings on record: cited from earlier work.
Chain of h5-HT7 (P34969 whole entry): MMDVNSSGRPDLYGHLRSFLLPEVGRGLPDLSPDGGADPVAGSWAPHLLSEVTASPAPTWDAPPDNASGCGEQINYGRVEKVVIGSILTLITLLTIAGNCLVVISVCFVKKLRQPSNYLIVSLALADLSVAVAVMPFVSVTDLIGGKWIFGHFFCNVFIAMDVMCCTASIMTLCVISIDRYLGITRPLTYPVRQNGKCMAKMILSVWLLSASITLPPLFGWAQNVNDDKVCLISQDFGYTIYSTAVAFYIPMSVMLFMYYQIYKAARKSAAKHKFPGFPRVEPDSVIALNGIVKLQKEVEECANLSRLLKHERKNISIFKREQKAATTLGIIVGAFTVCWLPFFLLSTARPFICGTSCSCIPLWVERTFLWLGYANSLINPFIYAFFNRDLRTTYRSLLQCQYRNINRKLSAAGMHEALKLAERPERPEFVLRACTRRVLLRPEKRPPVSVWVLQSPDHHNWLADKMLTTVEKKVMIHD
In test [3] the test system is patients with moderate AD (MMSE 12-19). The settings on record: LADDER study, 90 mg/day (30 mg TID) added to stable donepezil; cited from earlier work.
Test [4] concerns patients with mild-moderate AD. The test can be described thus: Phase III study 14861A, NPI by ApoE4 allele number. The settings on record: 60 mg QD versus placebo, adjunct to donepezil.
Excerpt: (§1) Neuropsychiatric Inventory (NPI) was included as an endpoint supportive of the secondary objective.
Test [5] deals with patients with mild-moderate AD. Nature of the test: Phase III study 14863A, NPI by ApoE4 allele number. As to conditions: 60 mg QD versus placebo, adjunct to donepezil, rivastigmine, galantamine.
Excerpt: as §1
For test [6], the system named is patients with mild-moderate AD. Nature of the test: Phase III study 14861A, MMSE by ApoE4 allele number. As to conditions: 60 mg QD versus placebo, adjunct to donepezil.
Description: (§2) Mini Mental State Examination (MMSE) is measured according to Folstein, M. F., Folstein, S. E. & McHugh, P. R. “Mini-mental state”: a practical method for grading the cognitive state of patients for the clinician.
(§3) Mine Mental State Examination (MMSE) was included as a secondary endpoint supportive of the primary objective.
(§4) In the tables below a negative effect value for ADAS-cog and NPI reflects a positive treatment effect, while for ADL and MMSE a positive effect value reflects a positive treatment effect:
Test [7] deals with patients with mild-moderate AD. Nature of the test: Phase III study 14863A, MMSE by ApoE4 allele number. The settings on record: 60 mg QD versus placebo, adjunct to donepezil, rivastigmine, galantamine.
Description: as §2, §3, §4
For test [8], the system named is patients with mild-moderate AD. The test can be described thus: Phase III study 14861A, ADAS-cog by ApoE4 allele number. The settings on record: 60 mg QD versus placebo, adjunct to donepezil.
Excerpt: (§5) The primary endpoint was change from baseline to Week 24 in Alzheimer's disease Assessment Scale-cognitive subscale (ADAS-cog). This end-point addresses the primary objective of the study, which was to establish efficacy of idalopirdine as adjunctive therapy to donepezil for symptomatic treatment of patients with mild-moderate AD.
Test [9] has as its system patients with mild-moderate AD. The test can be described thus: Phase III study 14861A, ADCS-ADL by ApoE4 allele number. As to conditions: 60 mg QD versus placebo, adjunct to donepezil.
Description: (§6) ADCS-ADL is measured according to Galasko et al. An inventory to assess activities of daily living for clinical trials in Alzheimer's disease.
(§7) The key secondary endpoints included a change from baseline to Week 24 in Alzheimer's disease Cooperative Study-Activities of Daily Living Inventory (ADCS-ADL) total score.
Test [10] deals with patients with mild-moderate AD. Nature of the test: Phase III study 14863A, ADAS-cog by ApoE4 allele number. The settings on record: 60 mg QD versus placebo, adjunct to donepezil, rivastigmine, galantamine.
Excerpt: as §5
Test [11] concerns patients with mild-moderate AD. Nature of the test: Phase III study 14863A, ADCS-ADL by ApoE4 allele number. As to conditions: 60 mg QD versus placebo, adjunct to donepezil, rivastigmine, galantamine.
Description: as §6, §7
Test [12] deals with patients with mild-moderate AD. Nature of the test: Phase III studies 14861A and 14863A pooled, NPI by ApoE4 allele number. The settings on record: 60 mg versus placebo, adjunct to AChEI.
Excerpt: as §1
In test [13] the test system is patients with mild-moderate AD. The test can be described thus: Phase III studies 14861A and 14863A pooled, MMSE by ApoE4 allele number. As to conditions: 60 mg versus placebo, adjunct to AChEI.
Description: as §2, §3, §4
Test [14] has as its system patients with mild-moderate AD. The test can be described thus: Phase III studies 14861A and 14863A pooled, ADAS-cog by ApoE4 allele number. As to conditions: 60 mg versus placebo, adjunct to AChEI.
Excerpt: as §5
For test [15], the system named is patients with mild-moderate AD. Nature of the test: Phase III studies 14861A and 14863A pooled, ADCS-ADL by ApoE4 allele number. As to conditions: 60 mg versus placebo, adjunct to AChEI.
Description: as §6, §7
For a further test, the system named is AD. As to conditions: cited from earlier work.
Setting [16] is: 0 ApoE4 alleles, negative = positive treatment effect.
The mark [17] stands for this setting: 1 ApoE4 allele, negative = positive treatment effect.
Setting [18] is: 2 ApoE4 alleles, negative = positive treatment effect.
[19] abbreviates: interaction 2 vs 0 ApoE4 alleles.
Setting [20] is: interaction (1 or 2) vs 0 ApoE4 alleles.
Setting [21] is: 0 ApoE4 alleles, positive = positive treatment effect.
Where [22] appears, read: 1 ApoE4 allele, positive = positive treatment effect.
The mark [23] stands for this setting: 2 ApoE4 alleles, positive = positive treatment effect.

Chain of h5-HT1E (P28566 whole entry): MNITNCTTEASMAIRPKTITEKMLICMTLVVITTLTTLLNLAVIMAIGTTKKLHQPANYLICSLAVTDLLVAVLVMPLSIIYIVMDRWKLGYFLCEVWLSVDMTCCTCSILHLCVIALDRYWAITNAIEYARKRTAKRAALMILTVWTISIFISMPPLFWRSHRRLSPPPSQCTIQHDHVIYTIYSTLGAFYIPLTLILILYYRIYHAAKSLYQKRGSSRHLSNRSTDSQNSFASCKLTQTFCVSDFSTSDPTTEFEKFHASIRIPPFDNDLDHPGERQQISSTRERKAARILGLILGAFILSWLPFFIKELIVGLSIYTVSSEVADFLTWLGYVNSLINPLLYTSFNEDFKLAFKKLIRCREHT

Consider `CSc1nn2c(C)cc(C)nc2c1S(=O)(=O)c1ccccc1` [AVN-211, 3-Benzenesulfonyl-5,7-dimethyl-2-methylsulfanyl-pyrazolo[1,5-a]pyrimidine], for which the “treatment response in Alzheimer's disease” value in [1] is listed as “enhanced treatment response”.
The same measure, in the same setting: next, `O=S(=O)(c1ccccc1)c1cnc2c(N3CCNCC3)cccc2c1` [RVT-101, 3-phenylsulfonyl-8-piperazin-1-yl-quinoline]: “enhanced treatment response”.
For the compound `Fc1ccc2c(CCNCc3cccc(OCC(F)(F)C(F)F)c3)c[nH]c2c1` [idalopirdine, N-(2-(6-fluoro-1H-indol-3-yl)-ethyl)-3-(2,2,3,3-tetrafluoropropoxy)-benzylamine], the “cognitive performance relative to donepezil monotherapy” value was “a significant improvement” in test [2] (adjunctive to donepezil, APOE4 homozygote and APOE4 heterozygote patients with mild-moderate AD (MMSE 12-22)); “did not replicate the phase II efficacy results; also recorded: no significant improvement” in test [2] (phase III, 10, 30, and 60 mg QD adjunctive to AChEI, all patients with mild-moderate AD (MMSE 12-22)); “significant improvement” in [3]. The inhibition constant Ki on h5-HT1B is greater than 10 µM; on h5-HT1E, greater than 4.6 µM; at h5-HT2B, greater than 4.1 µM; at h5-HT7, greater than 10 µM. For the same compound, the “Change in NPI at week 24, effect of 60 mg IDL” value (“Change in NPI” below) in test [4] (setting [16]) is given as 0.96; in test [4] (setting [17]), −0.43; in test [4] (setting [18]), −4.52; in [4] (setting [19]), −5.48; in test [4] (setting [20]), −3.44; in test [5] (setting [16]) it was −0.09. Also, the “Change in NPI” value in test [5] (setting [17]) is on record as 0.34; in test [5] (setting [18]), −2.06; in test [5] (setting [19]) it was −1.97; in test [5] (setting [20]), −0.77; in test [12] (setting [16]), 0.35; in test [12] (setting [17]), −0.04. Also, the “Change in NPI” value in [12] (setting [18]) is listed as −3.06; in [12] (setting [19]) it was −3.41; in test [12] (setting [20]), −1.90. Further, the “Change in MMSE at week 24, effect of 60 mg IDL” value (“Change in MMSE” for short) was −0.68 in test [6] (setting [21]); 0.64 in test [6] (setting [22]); 1.11 in [6] (setting [23]); 1.79 in [6] (setting [19]); 1.56 in test [6] (setting [20]); 0.16 in test [7] (setting [21]). For the same compound, the “Change in MMSE” value is 0.42 in [7] (setting [22]); 0.96 in test [7] (setting [23]); 0.80 in test [7] (setting [19]); 0.53 in [7] (setting [20]); −0.20 in test [13] (setting [21]); 0.53 in [13] (setting [22]). Besides, the “Change in MMSE” value is on record as 1.00 in [13] (setting [23]), 1.20 in test [13] (setting [19]) and 0.96 in test [13] (setting [20]). The “Change in ADAS-cog at week 24, effect of 60 mg IDL” value (shortened to “Change in ADAS-cog”) is reported as 1.14 in test [8] (setting [16]); −0.67 in test [8] (setting [17]); −1.87 in test [8] (setting [18]); −3.02 in test [8] (setting [19]); −2.42 in test [8] (setting [20]); −0.75 in [10] (setting [16]). Also, the “Change in ADAS-cog” value in test [10] (setting [17]) is listed as −0.18; in [10] (setting [18]), −2.23; in test [10] (setting [19]), −1.48; in test [10] (setting [20]), −0.46; in test [14] (setting [16]), 0.02; in test [14] (setting [17]), −0.41. Moreover, the “Change in ADAS-cog” value in test [14] (setting [18]) was −2.11; in test [14] (setting [19]) it was −2.13; in [14] (setting [20]) it was −1.28. In addition, the “Change in ADCS-ADL at week 24, effect of 60 mg IDL” value (“Change in ADCS-ADL” below) in test [9] (setting [21]) is −1.29; in test [9] (setting [22]), 0.75; in test [9] (setting [23]), 2.06; in [9] (setting [19]) it was 3.35; in [9] (setting [20]) it was 2.69; in test [11] (setting [21]), 0.50. For the same compound, the “Change in ADCS-ADL” value in test [11] (setting [22]) is 0.83; in test [11] (setting [23]), 1.86; in test [11] (setting [19]) it was 1.37; in test [11] (setting [20]), 0.85; in test [15] (setting [21]), −0.21; in test [15] (setting [22]), 0.77. For the same compound, the “Change in ADCS-ADL” value worked out at 1.88 in test [15] (setting [23]), 2.09 in [15] (setting [19]) and 1.53 in [15] (setting [20]).
In the case of `NCCCS(=O)(=O)O` [tramiprosate], the “primary endpoint of phase III program” value in the test on AD (all patients) is given as “not to meet its primary endpoint”. Besides, the prespecified subgroup analysis entry in the test on AD (apolipoprotein E4 carriers) is listed as “potential efficacy”.

Usually Ki stands for a dissociation constant, usually derived from enzyme kinetics or from competition with a known ligand.
